According to US20220267753A1, “RATIONAL THERAPEUTIC TARGETING OF ONCOGENIC IMMUNE SIGNALING STATES IN MYELOID MALIGNANCIES VIA THE UBIQUITIN CONJUGATING ENZYME UBE2N” (CHILDREN'S HOSPITAL MEDICAL CENTER, priority 2019, published 2022):

Experiments:
Cord Blood CD34+ = test: Cell proliferation MTS assay; type: cell-based, human
Procedure: AML cell lines (5×10^3 cells/well) were seeded in 96-well plates and grown for 24 to 96 h in serum (10%)-containing medium in the presence or absence of inhibitors at the indicated concentrations. Proliferation was analyzed by means of an MTS assay using the CellTiter 96 Aqueous One Solution Cell Proliferation Assay (Promega, Madison, Wis., USA), according to the manufacturer's instructions. Data are mean with standard deviation from three independent experiments in technical triplicates. For the screening of 160 compounds from the UC library, the cell metabolic activity was assessed at 24 hours of treatment of MOLM-13 cells. Top 15 candidates were re-screened at 2 μM, and the cell metabolic activity was determined at 24 hours of treatment. In certain experiments, cell viability was determined by staining the cells with trypan blue at a 1/2 dilution and counting total number of viable cells upon treatment with UC-764864 or DMSO control. The cells were counted daily for 4 days using an automated cell counter (Countess II FL from Life Technologies). […] UC-764864 was added at the indicated concentrations and cells were incubated with drug for 3 days, at which point cell viability was measured by MTS according to manufacturer's instructions.

[1] = Microsomal stability (human liver microsomes); type: in vitro ADME
[2] = test system: patient-derived AML cells; test: Viability (MTS) of patient-derived AML samples (PDX AMLs); type: cell-based, human; conditions: hierarchical clustering, MTS 24 h
Procedure: AML cell lines (5×10^3 cells/well) were seeded in 96-well plates and grown for 24 to 96 h in serum (10%)-containing medium in the presence or absence of inhibitors at the indicated concentrations. Proliferation was analyzed by means of an MTS assay using the CellTiter 96 Aqueous One Solution Cell Proliferation Assay (Promega, Madison, Wis., USA), according to the manufacturer's instructions. Data are mean with standard deviation from three independent experiments in technical triplicates. For the screening of 160 compounds from the UC library, the cell metabolic activity was assessed at 24 hours of treatment of MOLM-13 cells. Top 15 candidates were re-screened at 2 μM, and the cell metabolic activity was determined at 24 hours of treatment. In certain experiments, cell viability was determined by staining the cells with trypan blue at a 1/2 dilution and counting total number of viable cells upon treatment with UC-764864 or DMSO control. The cells were counted daily for 4 days using an automated cell counter (Countess II FL from Life Technologies). […] UC-764864 was added at the indicated concentrations and cells were incubated with drug for 3 days, at which point cell viability was measured by MTS according to manufacturer's instructions. […]

MOLM-13 cells = test: Ubiquitin-enrichment screen by mass spectrometry; type: cell-based, human; conditions: 2 μM
Procedure: Details of the ubiquitin-enrichment screen are described herein. Briefly, MOLM-13 cells were treated for 24 hr. with 2 μM of UC-764864. Ubiquitin-related peptide enrichment was performed by using ubiquitin remnant motif (K-ε-GG) antibody-conjugated beads (Cell Signaling Technology, Danvers, Mass.) following the manufacturer's instructions. Tryptic peptides were loaded onto the beads, and then ubiquitin-conjugated peptides were eluted from the bead. Nanoliquid chromatography coupled to electrospray tandem mass spectrometry (nanoLC-ESI-MS/MS) analyses were performed on a TripleTof 5600+ mass spectrometer (Sciex; Concord, Ontario, Canada) coupled with a nanoLC-ultra nanoflow system (Eksigent; Dublin, Calif.) in data dependent acquisition (DDA) or data independent acquisition (DIA) modes for Sequential Window Acquisition of all Theoretical mass spectra (SWATH-MS) analysis.
MOLM-13 cells were treated for 24 hours with 2 μM of UC-764864. […] To reduce redundant peptide sequencing, former MS/MS-analyzed candidate ions were excluded after its first occurrence for 12 s. The DDA data was recorded using Analyst-1T (v.1.7) software. […]

metabolism in human liver microsomes [1]: readily metabolized
SMILES: CCc1ccc(C(=O)C=CSc2nc3ccc(C)cc3[nH]2)cc1 [UC-764864, 1-(4-ethylphenyl)-3-[(6-methyl-1H-benzimidazol-2-yl)sulfanyl]prop-2-en-1-one]
proliferation capacity of cord blood CD34+ cells (Cord Blood CD34+): did not affect
IC50 (Cord Blood CD34+; Homo sapiens, Cord Blood CD34+, MTS, 24 hours): > 10 µM
sensitivity class of the other 20 PDX AMLs ([2]; 20 of 26 PDX AMLs): resistant
sensitivity class of PDX AMLs JM1, JM7, JM18, JM26, JM30, JM40 ([2]; six of 26 PDX AMLs): sensitive
ubiquitination levels of other Ub-conjugating enzymes (MOLM-13 cells; MOLM-13): did not significantly alter
ubiquitination of UBE2N at Lys-92 (MOLM-13 cells; MOLM-13, P<0.01): significantly reduced
